ChEMBL document CHEMBL1649523, “Prospective open-label study of the administration of two-percent voriconazole eye drops” (2009)
In brackets after ≈: the same amount, converted by molar mass.

Experiments:
Assay type in all cases: functional
Candida tropicalis = assay: Antifungal against Candida tropicalis
[1] = Antifungal against Paecilomyces lilacinus; conditions: Purpureocillium lilacinum
Aspergillus flavus = assay: Antifungal against Aspergillus flavus
Blastomyces dermatitidis = assay: Antifungal against Blastomycoides dermatitidis
[2] = Antifungal against Acremonium alabamense; conditions: Thielavia terrestris
Candida albicans = assay: Antifungal against Candida albicans
Fusarium sp. = assay: Antifungal against Fusarium sp.
Scedosporium apiospermum = assay: Antifungal against Scedosporium apiospermum
Aspergillus fumigatus = assay: Antifungal against Aspergillus fumigatus
Fusarium solani = assay: Antifungal against Fusarium solani by microdilution technique
Talaromyces marneffei = assay: Antifungal against Penicillium marneffei
Cryptococcus neoformans = assay: Antifungal against Cryptococcus neoformans
Histoplasma capsulatum = assay: Antifungal against Histoplasma capsulatum
[3] = Antifungal against Coccidioides immitis
Curvularia = assay: Antifungal against Curvularia
[4] = Antifungal against Scedosporium
Candida parapsilosis = assay: Antifungal against Candida parapsilosis; conditions: Lodderomyces parapsilosis

C[C@@H](c1ncncc1F)[C@](O)(Cn1cncn1)c1ccc(F)cc1F [VORICONAZOLE]
MIC90 (Candida tropicalis): > 0.25 µg/mL | MIC90 [1]: 0.5 µg/mL (≈ 1.43 µM) | MIC90 (Aspergillus flavus): 0.5 µg/mL (≈ 1.43 µM) | MIC90 (Blastomyces dermatitidis): 0.25 µg/mL (≈ 0.716 µM) | MIC90 [2]: 0.25 µg/mL (≈ 0.716 µM) | MIC90 (Candida albicans): 0.06 µg/mL (≈ 0.172 µM) | MIC90 (Fusarium sp.): 0.25 µg/mL (≈ 0.716 µM) | MIC90 (Scedosporium apiospermum): 0.5 µg/mL (≈ 1.43 µM) | MIC90 (Aspergillus fumigatus): 0.5 µg/mL (≈ 1.43 µM) | MIC90 (Fusarium solani): 2 µg/mL (≈ 5.73 µM) | MIC90 (Talaromyces marneffei): 0.03 µg/mL (≈ 0.0859 µM) | MIC90 (Cryptococcus neoformans): 0.06 µg/mL (≈ 0.172 µM) | MIC90 (Histoplasma capsulatum): 0.25 µg/mL (≈ 0.716 µM) | MIC90 [3]: 0.25 µg/mL (≈ 0.716 µM) | MIC90 (Curvularia): 0.06 µg/mL (≈ 0.172 µM) | MIC90 [4]: 0.5 µg/mL (≈ 1.43 µM) | MIC90 (Candida parapsilosis): 0.12 µg/mL (≈ 0.344 µM)
